{"source": "patent US11992559B2", "about": "“Microsphere formulations comprising lurasidone and methods for making and using the same” (Oakwood Laboratories, LLC, priority 2021, dated 2024)", "origin": "cited, not measured here", "key": {"[1]": {"details": "at 25° C."}}, "note": "Structures can show the parent of a compound that is named as a salt.", "data": [{"smiles": "O=C1[C@@H]2[C@H]3CC[C@H](C3)[C@@H]2C(=O)N1C[C@@H]1CCCC[C@H]1CN1CCN(c2nsc3ccccc23)CC1", "note": "[lurasidone HCl, Lurasidone]", "values": [{"measurement": "solubility in benzyl alcohol", "setting": "benzyl alcohol", "value": 69.19, "unit": "mg/g"}, {"measurement": "solubility in dichloromethane", "setting": "dichloromethane", "value": 24.43, "unit": "mg/g"}, {"measurement": "water solubility", "setting": "water", "value": 224, "unit": "µg/mL"}, {"measurement": "specific hydrophobicity log Pow", "setting": "[1]", "value": 5.6}]}]}
